What was measured:
Flk1+ MPCs [1] = assay: Differentiation of MCs from Flk1+ MPCs, FACS of αSMA+ MCs; assay type: cell-based, mouse; details: Y27632 10 μM; ML7 5 μM
Description: FIGS. 11A-11D. ROCK suppression promotes the differentiation of ECs through PTEN-Akt signaling and inhibits the differentiation of MCs through MyPT-MLC signaling. (FIG. 11A) Representative FACS analysis of CD31+/CD144+ ECs incubated with 0.1% DMSO or LY294002 (20┌ M; LY) in the presence of PBS (Control) or Y27632 (10┌ M; Y). (FIG. 11B) % of CD31+/CD144+ EC population. Each group, n=3. *p<0.01 versus 0. Each group, n=3. *p<0.01 versus DMSO; ^#p<0.01 versus Y27632. (FIG. 11C) Representative FACS analysis of ┌ SMA+MCs or CD144+ ECs incubated with 0.1% DMSO or ML7 (5 ┌ M) in the presence of PBS (Control) or Y27632 (10┌ M). (FIG. 11D) % of ┌ SMA+MC population. Each group, n=3. *p<0.01 versus 0. Each group, n=3. *p<0.01 versus DMSO. n.s. represents statistically non-significant.
Analysis and sorting for CMs were performed at day 10.5. We harvested differentiated Flk1+ MPCs on OP9 cells with 0.25% trypsin-EDTA or dissociation buffer (Invitrogen). Cardiac troponin-T (cTnT)+ and ┌ smooth muscle actin (SMA)+ cells were analyzed after permeabilization using Cytofix/Cytoperm solution (BD Biosciences) for 15 min. After permeabilization, the cells were incubated for 30 min with anti-mouse cTnT (NeoMarkers) monoclonal antibody. […] Data were analyzed using FlowJo Version 7.5.4 software (TreeStar).

Flk1+ MPCs [2] = assay: Differentiation and expansion of ECs from Flk1+ MPCs in feeder cell-free 2D Matrigel system, FACS of CD31+/CD144+ ECs; assay type: cell-based, mouse; details: for differentiation and expansion of ECs compared to control: Y27632 10 μM; for increase of CD31+/CD144+ EC population compared to Control: day 6.5, E14tg2a
Description: E14tg2a ESC cell line was a generous gift from Dr. Jun K. Yamashita (Kyoto University), and R1 ESC cell line was purchased from American Type Cell Culture. Mouse iPSC derived from FVB strain was a generous gift from Drs. Hyun-Jai Cho and Hyo-Soo Kim (Seoul National University Hospital). To obtain Flk1+ MPCs, ESCs and iPSCs were cultured on 0.1% gelatin-coated plates at a density of 1-2×10^3 cells/cm^2 in differentiation medium [┌−minimal essential medium (Invitrogen) supplemented with 10% fetal bovine serum (FBS)] without leukemia inhibitory factor (LIF). At day 4.5, the Flk1+ MPCs were purified by AutoMACS™Pro Separator (Miltenyi Biotec) with biotin-conjugated anti-mouse Flk1 antibody (clone AVAS12a1, eBioscience) and streptavidin MicroBeads (Miltenyi Biotec). The Flk1+MPCs were then subsequently plated onto Matrigel (BD Biosciences)-coated plates at a density of 1˜2×10^4 cells/cm^2, and were cultured in differentiation medium supplemented with VEGF-A165 (50 ng/ml, Peprotech). To purify the ECs from the differentiating Flk1+ cells, the cells were first dissociated and resuspended in HBSS/2% FBS, and were serially incubated with anti-mouse ICAM2 antibody (rat monoclonal, clone 3C4, Biolegend) for 10 min and with anti-rat IgG Microbead (Miltenyi Biotec) for 15 min. […] VEGF-Trap was prepared as previously described. Various signaling inhibitors and activators including SB203580, PD98059, KT5720, Go6976, KT5823, LY294002, rapamycin, Y27632, SB431542, Rho-kinase inhibitor (RKI; H-1152, isoquinolinesulfonamide), and Rho-kinase inhibitor II (RKI-II; pyridyl urea) were purchased from Calbiochem and Sigma-Aldrich.
Cells were harvested with 0.25% trypsin-EDTA (Invitrogen) or dissociation buffer (Invitrogen) and resuspended in HBSS/2% FBS at 1×10^6 cells per 100┌ l. The cells were incubated for 20 min with the following antibodies: biotin-conjugated anti-mouse Flk1 (clone AVAS12a1, eBioscience), allophycocyanin (APC)-conjugated anti-mouse CD140a (clone APA5, eBioscience), phycoerythrin(PE)-conjugated anti-mouse CD31 (clone 390, eBioscience), Alexa Fluor® 647-conjugated anti-mouse CD144 (clone BV13, eBioscience), PE-conjugated anti-mouse D114 (clone HMD4-1, Biolegend), PE-conjugated anti-mouse Tie2 (clone TEK4, eBioscience), PE-conjugated anti-mouse Endoglin (clone MJ7/18, Biolegend), anti-mouse ICAM2 (clone 3C4, Biolegend), APC-conjugated anti-mouse CD140b (clone APBS, eBioscience), PE-conjugated anti-mouse LYVE1 (clone ALY7, eBioscience), anti-mouse VEGFR3 (goat polyclonal, R&D systems), anti-mouse EphB4 (clone VEB4-7E4, Hycult biotech), and PE-conjugated anti-mouse Notch1 (clone HMN1-12, Biolegend). After washing in HBSS/2% FBS twice, the cells were incubated with the following secondary antibodies: PE-conjugated streptavidin (eBioscience), PE-conjugated anti-rat IgG2a (eBioscience), and FITC-conjugated anti-goat IgG (Invitrogen). Dead cells were excluded by 7-aminoactinomycin D (7-AAD, Invitrogen).
Flk1+ MPCs derived from mouse ESCs are capable of differentiating into ECs, hematopoietic cells, mural cells (MCs), and cardiomyocytes. To avoid cell contamination from using feeder cells for differentiation of Flk1+ MPCs, we have established a feeder cell-free 2D Matrigel system (FIG. 1A). Flk1+ MPCs were differentiated from E14tg2a ESC cell line, and when the Flk1+ MPCs were purified at day 4.5 and cultured on Matrigel-coated plates in the differentiation medium, colonies of CD144+ ECs surrounded by ┌ SMA+MCs were formed (FIG. 1B). At day 6.5, population of CD144+/CD31+ ECs grown in differentiation medium was ˜4%, whereas the same EC population was increased up to ˜20% when VEGF-A (50 ng/ml) was supplemented (FIG. 1C). For following experiments, we chose to use 50 ng/ml of VEGF-A (hereafter referred to as VEGF-A) based on its maximal effect on differentiation and expansion of ECs from Flk1+ MPCs.

In the case of `C[C@@H](N)[C@H]1CC[C@H](C(=O)Nc2ccncc2)CC1` [Y27632], the “reduction of αSMA+MC population” value (Flk1+ MPCs [1]) is reported as ~83%, the “total number of CD31+/CD144+ ECs from Flk1+ MPCs” value (Flk1+ MPCs [2]; 10 μM Y27632 plus VEGF-A compared to only VEGF-A (Control)) is reported as ~4.2 fold and the “percentage of EC population compared to control” value (Flk1+ MPCs [2]; 48 hrs after removal of the non-adherent cells at 6 hrs) is reported as 1.4 fold. For the same compound, the “differentiation and expansion of ECs compared to control” value (Flk1+ MPCs [2]; R1 ESC cell line) was 1.6 fold, the “increase of CD31+/CD144+ EC population compared to Control” value (Flk1+ MPCs [2]; Y27632 1 μM with VEGF-A 50 ng/ml) was 1.8 fold and the “increase of CD31+/CD144+ EC population compared to Control” value (Flk1+ MPCs [2]; Y27632 10 μM with VEGF-A 50 ng/ml) was 4.1 fold. For the same compound, the “differentiation and expansion of ECs compared to control” value (Flk1+ MPCs [2]; iPSC) was 5.9 fold and the “percentage of EC population and total cell number, dose-dependent” value (Flk1+ MPCs [2]; various concentrations of Y27632 with VEGF-A) was “increased”.

— US20150368617A1, “METHOD FOR FORMING ENDOTHELIAL CELLS” (Korea Advanced Institute of Science and Technology (KAIST), priority 2012, published 2015)
